System: superoxide dismutase (SOD)
Experiment: Influence of small-molecule substances on SOD enzyme activity and thermal stability at 80° C.
Type: biochemical
Details: experimental group 1: 100 μL SOD solution (1×10^−4 mol/L) + 100 μL substance solution (1×10^−3 mol/L); water bath 80° C., 4 hours, enzyme activity every 20 minutes; vs SOD blank control; FIG. 1
Experimental: SOD solution: Mr(SOD)=37.8 kDa, 37.8 mg of SOD was weighed and dissolved in 10 mL of phosphate buffer to obtain a stock solution of CSOD=1×10^−4 mol/L.
Experimental group 1: 100 μL of the SOD solution was taken out and added to each of […] 10 mL centrifuge tubes, and then 100 μL of the solution of each of the vitamin C, the vitamin p, the catechin, the quercetin, the myricetin, the kaempherol, the ellagic acid, and the ferulic acid was added to each of the […] centrifuge tubes. Another 100 μL of the SOD solution was taken out as blank control. The centrifuge tubes and the blank control were placed in a water bath at 80° C., incubated for 4 hours, and detected for enzyme activity every 20 minutes. […]

| Compound | activity of the SOD | thermal stability of the SOD |
| --- | --- | --- |
| Cc1ncc(C[n+]2csc(CCO)c2C)c(N)n1 [Vb1, vitamin B1, reference compound] | fails to improve the activity and thermal stability of SOD enzymes | fails to improve the activity and thermal stability of SOD enzymes |
| O=c1oc2c(O)c(O)cc3c(=O)oc4c(O)c(O)cc1c4c23 [ellagic acid] | improve the activity of the SOD | significantly improve the thermal stability of the SOD |
| COc1cc(/C=C/C(=O)O)ccc1O [ferulic acid] | improve the activity of the SOD | significantly improve the thermal stability of the SOD |
| O=c1c(O)c(-c2ccc(O)cc2)oc2cc(O)cc(O)c12 [kaempherol] | improve the activity of the SOD | significantly improve the thermal stability of the SOD |
| O=c1c(O)c(-c2cc(O)c(O)c(O)c2)oc2cc(O)cc(O)c12 [myricetin] | improve the activity of the SOD | significantly improve the thermal stability of the SOD |
| O=c1c(O)c(-c2ccc(O)c(O)c2)oc2cc(O)cc(O)c12 [quercetin] | improve the activity of the SOD | significantly improve the thermal stability of the SOD |
| O=C1O[C@H]([C@@H](O)CO)C(O)=C1O [vitamin C] | improve the activity of the SOD | significantly improve the thermal stability of the SOD |
| catechin | improve the activity of the SOD | significantly improve the thermal stability of the SOD |
| vitamin P | improve the activity of the SOD | significantly improve the thermal stability of the SOD |
